Assays:
[1] = cited from earlier work
Plasmodium berghei ANKA = test: Peters' four-day suppressive test in BALB/c mice; format: in vivo; details: ip; for Mean ED50 ± SE: once daily days 0 to 3, BALB/c mice, n = 5
Text: Evaluation of the curative potential of the fluoroquinolone derivatives was done using the method described by Ryley and Peters, 1970 (rodent malaria four-day suppressive test; Peters’ four-day suppressive test). Rodent malaria parasite Plasmodium berghei ANKA was used.
[…] BALB/c inbred albino mice (25–30 g) of the male sex were obtained from the Animal Facility Centre of the Department of Zoology, University of Delhi. The animals were fed ad libitum with standard feed and had free access to water. They were maintained under standard conditions of humidity, temperature (25°C) and 12 hours light/darkness cycles. The animals were acclimatized for two weeks before the commencement of the study and were ensured to exclude all zoonotic agents.
Day 0: Heparinized blood was withdrawn from an infected donor mouse with approximately 25-30% parasitemia, and diluted in 1x PBS to 10^8 parasitized erythrocytes per mL. An aliquot of 0.2 mL (=2 × 10^7 parasitized erythrocytes) of this suspension was injected intraperitoneally (ip) into experimental groups of five mice each. One to three hours post-infection, the experimental groups were treated with varying doses of each of the test compounds (0.5, 1, 10, 25 mg/kg BW) by the ip route. Each compound was made to strength of 5 mg/ml stock solution in 10% DMSO and administered according to desired concentration and individual body weight. Artemisinin was given to the standard drug group and 0.2 mL of normal saline to the negative control group.
Day 1, 2 and 3: 24 hours, 48 hours and 72 hours post-infection, the experimental groups of mice were treated again with the same dose and by the same route as on day 0.
Day 4: 24 hours after the last treatment (i.e., 96 hours post-infection), blood was drawn from the tail region of mice and smears were prepared. […] Differences in parasitemia percentage between treated groups and untreated animals were analysed by a one-way ANOVA test using IBM SPSS Statistics 16.0 and differences considered significant if P < 0.05. […] Percentinhibitionactivity=100–Meanparasitemia/control×100
Untreated control mice typically died approximately one week after infection. […] The mean survival time was calculated in comparison to untreated (Normal saline) and standard drug (artemisinin) treated groups. Differences in survival time between treated groups and untreated animals were analysed by Log-rank (Mantel-Cox) test using GraphPad Prism 5 and differences considered significant if P <0.005. Observations concerning adverse effects due to the compounds were recorded.

[2] = tested on: Plasmodium falciparum 3D7 strain; test: antiplasmodial interaction assay, fixed-ratio combination isobologram method with artemisinin; format: cell-based; details: n = 3
Protocol: Stock culture of malaria parasite P. falciparum 3D7 strain (chloroquine sensitive) was continuously maintained in vitro using a CO2 incubator under low-oxygen concentration (3%) and high carbon dioxide atmosphere (4%) along with nitrogen (93%), incubated at a temperature of 37°C. The parasites were maintained on O^+ human red blood cells suspended in a complete culture medium. Each litre of RPMI-1640 aqueous culture medium was prepared with 10.4 g of powdered RPMI-1640 (with glutamine but without sodium bicarbonate), 5.94 g of HEPES buffer, 1 g of dextrose and 40 mg of gentamicin. Complete medium was constituted just before use by adding sterile 5% sodium bicarbonate at the rate of 4 ml per 96 ml, and supplemented with 10% (v/v) pooled O^+ human serum. Infected erythrocytes were suspended in this culture media initiated at a haematocrit value of 5% and parasitemia was kept between 2 and 4% with sub-culturing done beyond 5%. Medium was changed once a day and percentage parasitemia was monitored using Giemsa stained slides.
Artemisinin (Sigma Aldrich, USA) was prepared in DMSO to get the stock solution of 1 mg/ml strength. Compounds 10, 12 and 18 were synthesized according to the procedure described by Dixit et al. and each compound was made to strength of 1 mg/ml stock solution in DMSO. The stock solutions were diluted on the day of experiment to get the desired concentrations for each compound. The highest amount of DMSO in diluted concentrations was 0.125%, and had no effect on parasite growth.
In each combination assay, two compounds (Compound A, artemisinin and Compound B, a fluoroquinolone derivative or norfloxacin) were combined in four fixed ratios (4:1, 3:2, 2:3, and 1:4).
Compound dilutions of each combination solution were made in sterile, flat-bottomed, 96-well tissue culture plates as described by Fivelman et al.. Six times two-fold serial dilution was done for each combination in triplicate. Each well contained a total volume of 200 μl of complete culture medium with or without compound and pre-synchronized infected red blood cells (1% parasitemia at 2.5% haematocrit). Control cultures (without compound) were maintained on the same plate in triplicate. Two 96-well plates (for six combinations) were used for each combination experiment. The plates were stacked in a CO2 incubator and incubated at 37°C for 48 hours.
After 48-hour incubation, thin blood smear slides were prepared, air dried, methanol fixed, and stained in Giemsa solution for 40 min. After staining, slides were removed from coupling jar, washed in running tap water and air dried. The Giemsa-stained slides were examined for counting the number of parasites in random adjacent microscopic fields, equivalent to about 4,000 erythrocytes at 1,000 × magnification. Per cent parasitemia was calculated. Reproducibility of counts was checked by two other readers to maintain the quality control.
For each combination assay, IC50 was calculated from two sets of concentration response graphs, each containing compound alone curve and four combination curves.
ƩFIC <1 represents synergism, ƩFIC > = 1 and <2 represents additive interaction, ƩFIC > = 2 and <4 represents slight antagonism while ƩFIC > = 4 represents marked antagonism.

## C[C@@H]1CC[C@H]2[C@@H](C)C(=O)O[C@@H]3O[C@@]4(C)CC[C@@H]1[C@]32OO4 [Artemisinin]
[1]
  half life: < one
Plasmodium berghei ANKA
  Mean ED50 ± SE: 1.72 ± 0.15 mg/kg BW
Plasmodium berghei ANKA; listed as artemisinin
  Mean ED50 ± SE: 1.72 mg/kg BW
Plasmodium berghei ANKA; varying doses 0.5-25 mg/kg BW, observed 30 days
  survival of treated mice: survived beyond two weeks
[2]; ratio A:B 1:4, combined with compound 10
  Drug A (Artemisinin) Mean FIC50 ± SE: 0.17 ± 0.03
[2]; ratio A:B 1:4, combined with compound 12
  Drug A (Artemisinin) Mean FIC50 ± SE: 0.25 ± 0.004
[2]; ratio A:B 1:4, combined with compound 18
  Drug A (Artemisinin) Mean FIC50 ± SE: 0.22 ± 0.01
[2]; ratio A:B 1:4, combined with norfloxacin
  Drug A (Artemisinin) Mean FIC50 ± SE: 0.14 ± 0.01
[2]; ratio A:B 2:3, combined with compound 10
  Drug A (Artemisinin) Mean FIC50 ± SE: 0.48 ± 0.02
[2]; ratio A:B 2:3, combined with compound 12
  Drug A (Artemisinin) Mean FIC50 ± SE: 0.50 ± 0.02
[2]; ratio A:B 2:3, combined with compound 18
  Drug A (Artemisinin) Mean FIC50 ± SE: 0.49 ± 0.04
[2]; ratio A:B 2:3, combined with norfloxacin
  Drug A (Artemisinin) Mean FIC50 ± SE: 0.66 ± 0.02
[2]; ratio A:B 3:2, combined with compound 10
  Drug A (Artemisinin) Mean FIC50 ± SE: 0.58 ± 0.03
[2]; ratio A:B 3:2, combined with compound 12
  Drug A (Artemisinin) Mean FIC50 ± SE: 0.60 ± 0.03
[2]; ratio A:B 3:2, combined with compound 18
  Drug A (Artemisinin) Mean FIC50 ± SE: 0.55 ± 0.03
[2]; ratio A:B 3:2, combined with norfloxacin
  Drug A (Artemisinin) Mean FIC50 ± SE: 0.29 ± 0.02
[2]; ratio A:B 4:1, combined with compound 10
  Drug A (Artemisinin) Mean FIC50 ± SE: 0.61 ± 0.01
[2]; ratio A:B 4:1, combined with compound 12
  Drug A (Artemisinin) Mean FIC50 ± SE: 0.63 ± 0.03
[2]; ratio A:B 4:1, combined with compound 18
  Drug A (Artemisinin) Mean FIC50 ± SE: 0.58 ± 0.02
[2]; ratio A:B 4:1, combined with norfloxacin
  Drug A (Artemisinin) Mean FIC50 ± SE: 0.91 ± 0.03
[2]; ratio A:B 5:0, assay with compound 10
  Drug A (Artemisinin) Mean FIC50 ± SE: 1.02 ± 0.04
[2]; ratio A:B 5:0, assay with compound 12
  Drug A (Artemisinin) Mean FIC50 ± SE: 1.0 ± 0.02
[2]; ratio A:B 5:0, assay with compound 18
  Drug A (Artemisinin) Mean FIC50 ± SE: 0.97 ± 0.07
[2]; ratio A:B 5:0, assay with norfloxacin
  Drug A (Artemisinin) Mean FIC50 ± SE: 1.13 ± 0.06

From paper PMC4349624, “In vitro synergistic effect of fluoroquinolone analogues in combination with artemisinin against Plasmodium falciparum; their antiplasmodial action in rodent malaria model” (Malaria Journal, 2015)
